Laboratory results: US12448655B2, “Antibiotic susceptibility of microorganisms and related methods and systems” (CALIFORNIA INSTITUTE OF TECHNOLOGY, priority 2017, dated 2025)

How the values were obtained:
Type in all cases: cell-based
Neisseria gonorrhoeae [1] = test: Two-step nuc-aAST on Ng clinical urine samples and their isolates, TNP enhancer (Examples 35, 37); conditions: antibiotic-resistant samples and isolates (Sample #3, #4); 1 μg/mL 30 min, then TNP 3-5 min, DNaseI
Protocol: Clinical sample nuc-aAST. Suspensions of clinical urine samples were prepared as described above. All suspensions were generated, and the ABX-exposure step initiated within 90 min of sample donation. The initial ABX-exposure was performed by incubating 50 μL control and treated samples at 37° C. in PCR tube strips on a BioRad C1000 Thermal Cycler. Treated samples consisted of […] of suspension and 1.25 μL aliquot of PEN or CRO (40 μg/mL). ABX were replaced with NF—H2O in control samples. After 30 min of incubation, samples were vortexed and quickly spun on a benchtop microcentrifuge (Labnet) at 2,000×g for 2-3 sec, and 2.7 μL TNP (100 mM) was added to each sample for the enhancement step. Samples were then immediately vortexed, spun on a benchtop microcentrifuge (Labnet) at 2,000×g for 2-3 sec, and incubated at 37° C. for 3-5 min. After the enhancement step, 20 μL from each sample was extracted by diluting 5× in QuickExtract DNA Extraction Solution (Lucigen) and heating for 6 min at 65° C. followed by 4 min at 98° C. on a BioRad C1000 Thermal Cycler. All sample handling following ABX exposure was performed using a multichannel pipette; qPCR and calculation of percentage accessibility were performed as previously described, with the modification that the qPCR mix included 2 μL of template per 10 μL PCR reaction instead of 1 μL template per 10 μL reaction. […]

Neisseria gonorrhoeae [2] = test: AST by inaccessible DNA without enhancing treatment, static incubation time course, qPCR (Example 7); conditions: penicillin-susceptible isolate ng_15; 1 μg/mL PEN; MHB; DNaseI secondary step
Protocol: Antibiotic susceptibility test was performed with methods herein described relying on b-lactam-induced cellular lysis, or cell-wall damage, to generate differences in DNA accessibility between the unexposed and exposed tubes. No enhancing treatment is performed in this example. In this example DNaseI is used to degrade the DNA made accessible by beta-lactam induced damage over incubation times larger than what is tested in examples 1-6 (incubation times >30 minutes)
The layout of this experiment is illustrated in FIG. 14 according to which a penicillin-susceptible isolate is incubated with penicillin for 15 min-6 hours. At each time point, DNaseI will be added to degrade the accessible DNA, then the DNaseI will be inactivated simultaneously with the lysis of the remaining cells. The quantified nucleic acids represent those from the cells with inaccessible DNA throughout the antibiotic exposure and incubation with DNaseI.
The treated and untreated samples were incubated at 37° C. for 15 minutes, Ihr, 2 hr, 3 hr, 4 hr, 5 hr, 6 hr. At each time point, bring the culture tubes into the BSC and incubate an aliquot of the contents with DNaseI to degrade the accessible DNA. • 8. secondary incubation of treated and untreated samples to degrade accessible DNA […]

Neisseria gonorrhoeae [3] = test: AST by inaccessible DNA, 2 incubation steps (media; TRIS pH 8.5 enhancing buffer), qPCR (Example 3); conditions: 30 min ABX exposure then 20 min TRIS pH 8.5 ± 1% Triton X-100
Protocol: Antibiotic susceptibility test was performed with methods herein described comprising 2 sequential incubation steps, and in particular • a primary incubation in which a sample is contacted with media, antibiotic (or water in untreated sample), and a nuclease (such as DNaseI), and optionally an enhancer (such as 1% Triton X-100); and • a secondary incubation in which a cell suspension from primary incubation is contacted with enhancers such as 50 mM TRIS buffer at pH 8.5 and/or 1% Triton X-100, possibly using dilution of the cell suspension from the antibiotic exposure by 90-95% (such as 50 μL into 450 μL, 25 μL into 475 μL) removing most antibiotic, culture media, and other components from the primary incubation for the enhancer condition.
The samples were mixed before transferring 25 μL or 50 μL of the sample to the prepared secondary incubation (enhancer) tubes. The charts in step 1 were followed to add the appropriate volume of cells to each tube. Mix the tubes and proceed to step 9 immediately
Extraction was performed following the “DEB Extraction” description in the general methods using Eppendorf tubes. […]
Detection of DNA was performed following the “qPCR” description in the general methods. Quantify all DEB-extracted DNA using the Primer mix=(10 μM forward and reverse) targeting N. gonorrhoeae porA gene. […]

For penicillin, the “mean percentage accessibility of DNA” value (Neisseria gonorrhoeae [1]) was under 46%, the “antibiotic exposure time needed for a detectable CT ratio without enhancer” value (Neisseria gonorrhoeae [2]) was at least 3 h and the “fold change (1/FC) of DNA between 30 and 50 minute measurements” value (Neisseria gonorrhoeae [3]; resistant isolate (ng_44)) was “approximately 1.5”. The “fold change (1/FC) of DNA between 30 and 50 minute measurements” value (Neisseria gonorrhoeae [3]; susceptible-treated samples (ng_17)) was over 5.
